Our source for the IC50 values is patent publication US12466804B2 (BRISTOL-MYERS SQUIBB COMPANY, priority 2019, dated 2025).

The structures appear in SMILES notation.

For the first test, the target named is T1, human LPA1 (Homo sapiens, UniProt Q92633).
T1 construct: expressed in transfected cells; host or cells: Chinese hamster ovary (CHO) cells
T1 sequence (Q92633 whole entry): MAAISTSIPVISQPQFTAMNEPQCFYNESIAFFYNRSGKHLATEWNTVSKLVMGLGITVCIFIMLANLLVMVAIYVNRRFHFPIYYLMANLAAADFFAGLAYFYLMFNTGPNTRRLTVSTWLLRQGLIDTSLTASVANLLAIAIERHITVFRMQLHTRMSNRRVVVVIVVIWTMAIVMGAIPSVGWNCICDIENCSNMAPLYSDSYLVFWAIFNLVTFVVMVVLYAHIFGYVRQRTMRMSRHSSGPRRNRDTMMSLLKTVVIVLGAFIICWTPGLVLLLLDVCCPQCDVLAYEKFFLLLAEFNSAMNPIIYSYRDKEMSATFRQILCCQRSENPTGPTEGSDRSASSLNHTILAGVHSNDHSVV
As to the kind of experiment: LPA1 functional antagonist assay (LPA-induced calcium flux). It counts as cell-based.
Conditions: not given
The protocol:
The effectiveness of compounds of the present invention as LPA1 inhibitors can be determined in an LPA1 functional antagonist assay as follows:
The cells were then equilibrated to room temperature for 30 minutes before the assay. […] IC50 values were determined by fitting data to a 4-parameter logistic equation (GraphPad Prism, San Diego CA).
For orientation: A change in cytosolic calcium serves as a functional read-out for many receptors and channels.
As a reminder, the IC50 is the point on the concentration scale where inhibition reaches its midpoint. As for `CN(CC1CCC1)C(=O)OCc1c(-c2ccc(OCC34CC(C(=O)O)(C3)C4)cn2)nnn1C` [Example 54, 3-(((6-(5-((((cyclobutylmethyl)(methyl)carbamoyl)oxy)methyl)-1-methyl-1H-1,2,3-triazol-4-yl)pyridin-3-yl)oxy)methyl)bicyclo[1.1.1]pentane-1-carboxylic acid], the concentration for half-maximal inhibition (IC50) is 0.427 µM.

Still in this test, the particulars now being: CHO cells overexpressing human LPA1; calcium flux induced by 10 nM LPA; read-out: hLPA1 IC50.
Turning to `Cc1nc(-c2nnn(C)c2CNC(=O)OCC(C)C)ccc1OC[C@@H]1CC[C@H]1C(=O)O` (racemic) [Example 41, (±)-(1R,2R)-2-(((6-(5-(((isobutoxy-carbonyl)amino)methyl)-1-methyl-1H-1,2,3-triazol-4-yl)-2-methy-lpyridin-3-yl)oxy)methyl)cyclobutanecarboxylic acid], the IC50 was 3.75 µM.

As to `CCCCOC(=O)NCc1c(-c2ccc(OC[C@@H]3CC[C@H]3C(=O)O)c(C)n2)nnn1C` (racemic) [Example 42, (±)-(1R,2R)-2-(((6-(5-(((butoxy-carbonyl)amino)methyl)-1-methyl-1H-1,2,3-triazol-4-yl)-2-methyl-pyridin-3-yl)oxy)methyl)cyclobutanecarboxylic acid], the IC50 amounted to 0.649 µM.

As to `CC[C@H](C)COC(=O)NCc1c(-c2ccc(OC[C@@H]3CC[C@H]3C(=O)O)c(C)n2)nnn1C` (racemic) [Example 43, (±)-(1R,2R)-2-(((2-methyl-6-(1-methyl-5-(((((S)-2-methyl-butoxy)carbonyl)amino)methyl)-1H-1,2,3-triazol-4-yl)pyridin-3-yl)oxy)methyl)cyclobutane carboxylic acid], the IC50 came out at 0.047 µM.

Take `Cc1nc(-c2nnn(C)c2CNC(=O)OCC(C)CC(F)(F)F)ccc1OC[C@@H]1CC[C@H]1C(=O)O` (mixture of isomers) [Example 44, (±)-(1R,2R)-2-(((2-methyl-6-(1-methyl-5-((((4,4,4-trifluoro-2-methylbutoxy)carbonyl)amino)methyl)-1H-1,2,3-triazol-4-yl)pyridin-3-yl)oxy)methyl)cyclobutane carboxylic acid]: the IC50 amounted to 0.103 µM.

Turning to `Cc1nc(-c2nnn(C)c2COC(=O)NC2CCCCC2)ccc1OC[C@@H]1CC[C@H]1C(=O)O` (racemic) [Example 45, (±)-(1R,2R)-2-(((6-(5-(((cyclohexylcarbamoyl)oxy)methyl)-1-methyl-1H-1,2,3-triazol-4-yl)-2-methyl-pyridin-3-yl)oxy)methyl)cyclobutane-1-carboxylic acid], the IC50 turned out to be 0.435 µM.

Regarding `CCCN(C)C(=O)OCc1c(-c2ccc(OC[C@@H]3CC[C@H]3C(=O)O)c(C)n2)nnn1C` (racemic) [Example 46], the IC50 came to 0.275 µM.

With `Cc1nc(-c2nnn(C)c2COC(=O)N(C)C2CCCC2)ccc1OC[C@@H]1CC[C@H]1C(=O)O` (racemic) [Example 47, (±)-(1R,2R)-2-(((6-(5-(((cyclopentyl(methyl)carbamoyl)oxy)methyl)-1-methyl-1H-1,2,3-triazol-4-yl)-2-methyl-pyridin-3-yl)oxy)methyl)cyclobutane carboxylic acid], the IC50 stood at 0.023 µM.

With `Cc1nc(-c2nnn(C)c2COC(=O)N(C)C2CCC2)ccc1OC[C@@H]1CC[C@H]1C(=O)O` (racemic) [Example 48, (±)-(1R,2R)-2-(((6-(5-(((cyclobutyl(methyl)carbamoyl)oxy)methyl)-1-methyl-1H-1,2,3-triazol-4-yl)-2-methylpyridin-3-yl)oxy)methyl)cyclobutanecarboxylic acid], the IC50 was 0.072 µM.

Consider `Cc1nc(-c2nnn(C)c2COC(=O)N(C)CC(C)C)ccc1OC[C@@H]1CC[C@H]1C(=O)O` (racemic) [Example 49, (±)-(1R,2R)-2-(((6-(5-(((isobutyl(methyl)carbamoyl)oxy)methyl)-1-methyl-1H-1,2,3-triazol-4-yl)-2-methylpyridin-3-yl)oxy)methyl)cyclobutanecarboxylic acid], for which the half-maximal inhibitory concentration (IC50) is 0.232 µM.

Take `CCCCN(C)C(=O)OCc1c(-c2ccc(OC[C@@H]3CC[C@H]3C(=O)O)c(C)n2)nnn1C` (racemic) [Example 50, (±)-(1R,2R)-2-(((6-(5-(((butyl(methyl)carbamoyl)oxy)methyl)-1-methyl-1H-1,2,3-triazol-4-yl)-2-methylpyridin-3-yl)oxy)methyl)cyclobutanecarboxylic acid]: the IC50 was determined as 0.022 µM.

Consider `CCC(C)Cc1nc(NCc2c(-c3ccc(OCC45CC(C(=O)O)(C4)C5)c(C)n3)nnn2C)no1` (racemic) [Example 56, (±)-3-(((2-methyl-6-(1-methyl-5-(((5-(2-methylbutyl)-1,2,4-oxadiazol-3-yl)amino)methyl)-1H-1,2,3-triazol-4-yl)pyridin-3-yl)oxy)methyl)bicyclo[1.1.1]pentane-1-carboxylic acid], for which the IC50 was determined as 0.586 µM.

With `Cc1nc(-c2nnn(C)c2NC(=O)OCC2CC2)ccc1OC[C@H]1CC[C@@H]1C(=O)O` (racemic) [Example 59, (±)-(1S,2S)-2-(((6-(5-(((cyclopropyl-methoxy)carbonyl)amino)-1-methyl-1H-1,2,3-triazol-4-yl)-2-methyl-pyridin-3-yl)oxy)methyl)cyclobutane-1-carboxylic acid], the IC50 was 3.59 µM.

With `Cc1nc(-c2nnn(C)c2CNc2noc(CC3CC3)n2)ccc1OC[C@H]1CC[C@@H]1C(=O)O` (racemic) [Example 60, (±)-(1S,2S)-2-(((6-(5-(((5-(Cyclopropylmethyl)-1,2,4-oxadiazol-3-yl)amino)methyl)-1-methyl-1H-1,2,3-triazol-4-yl)-2-methylpyridin-3-yl)oxy)methyl) cyclobutane-1-carboxylic acid], the IC50 was found to be 1.16 µM.

For `Cc1noc(-c2ccc(OC[C@@H]3CC[C@H]3C(=O)O)cn2)c1CNc1nccc(-c2ccccn2)n1` (single isomer, unassigned) [Example 3], the IC50 was 0.007 µM.

On to `Cc1noc(-c2ccc(OC[C@H]3CC[C@@H]3C(=O)O)cn2)c1CNc1nccc(-c2ccccn2)n1` (single isomer, unassigned) [Example 4], for which the IC50 amounted to 0.014 µM.

As for `Cc1nc(-c2nnn(C)c2COC(=O)N(C)CC2CCC2)ccc1OC[C@@H]1CC[C@H]1C(=O)O` (single isomer, unassigned) [Example 7], the IC50 was 0.026 µM.

In the case of `Cc1nc(-c2nnn(C)c2COC(=O)N(C)CC2CCC2)ccc1OC[C@H]1CC[C@@H]1C(=O)O` (single isomer, unassigned) [Example 8], the IC50 turned out to be 0.006 µM.

Turning to `CCc1cc(OCc2c(-c3ccc(OC[C@@H]4CC[C@H]4C(=O)O)c(C)n3)nnn2C)ncn1` (single isomer, unassigned) [Example 12], the 50% inhibitory concentration (IC50) is 0.077 µM.

For the compound `CCc1cc(OCc2c(-c3ccc(OC[C@H]4CC[C@@H]4C(=O)O)c(C)n3)nnn2C)ncn1` (single isomer, unassigned) [Example 13], the IC50 came out at 0.028 µM.

For the compound `Cc1nc(-c2nnn(C)c2CNc2nccc(C(C)C)n2)ccc1OC[C@@H]1CC[C@H]1C(=O)O` (single isomer, unassigned) [Example 24], the IC50 was found to be 1.15 µM.

With `Cc1nc(-c2nnn(C)c2CNc2nccc(C(C)C)n2)ccc1OC[C@H]1CC[C@@H]1C(=O)O` (single isomer, unassigned) [Example 25], the IC50 was found to be 0.051 µM.

`Cn1nnc(-c2ccc(OC[C@@H]3CC[C@H]3C(=O)O)cn2)c1CNc1nccc(-c2ccccn2)n1` (single isomer, unassigned) [Example 28]: the IC50 is 0.067 µM.

`Cn1nnc(-c2ccc(OC[C@H]3CC[C@@H]3C(=O)O)cn2)c1CNc1nccc(-c2ccccn2)n1` (single isomer, unassigned) [Example 29]: the IC50 worked out at 0.186 µM.

As for `Cc1nc(-c2nnn(C)c2Cn2nnc(CC3CC3)n2)ccc1OC[C@@H]1CC[C@H]1C(=O)O` (single isomer, unassigned) [Example 38], the 50% inhibitory concentration (IC50) was 0.063 µM.

Regarding `Cc1nc(-c2nnn(C)c2Cn2nnc(CC3CC3)n2)ccc1OC[C@H]1CC[C@@H]1C(=O)O` (single isomer, unassigned) [Example 39], the IC50 was found to be 0.25 µM.

Regarding `Cc1nc(-c2nnn(C)c2COC(=O)N(C)CC2CCC2)ccc1O[C@H]1C[C@H](C(=O)O)C1` [Example 9, trans-3-((6-(5-((((cyclobutylmethyl)(methyl)carbamoyl)oxy)methyl)-1-methyl-1H-1,2,3-triazol-4-yl)-2-methylpyridin-3-yl)oxy)cyclobutane-1-carboxylic acid], the IC50 was 0.278 µM.

On to `Cc1nc(-c2nnn(C)c2COC(=O)N(C)CC2CCC2)ccc1O[C@H]1C[C@@H](C(=O)O)C1` [Example 10, cis-3-((6-(5-((((cyclobutylmethyl)(methyl)carbamoyl)oxy)methyl)-1-methyl-1H-1,2,3-triazol-4-yl)-2-methylpyridin-3-yl)oxy)cyclobutane-1-carboxylic acid], for which the IC50 turned out to be 0.789 µM.

On to `Cc1noc(-c2ccc(OCC3CC(C(=O)O)C3)cc2)c1COC(=O)N(C)C1CCCC1` (centres unmarked) [Example 30, 3-((4-(4-(((Cyclopentyl(methyl)carbamoyl)oxy)methyl)-3-methylisoxazol-5-yl)phenoxy)methyl)cyclobutanecarboxylic acid], for which the IC50 came out at 0.316 µM.

As for `CN(C(=O)OCc1c(-c2ccc(OCC34CC(C(=O)O)(C3)C4)cn2)nnn1C)C1CCCC1` [Example 51, 3-(((6-(5-(((cyclopentyl(methyl)carbamoyl)oxy)methyl)-1-methyl-1H-1,2,3-triazol-4-yl)pyridin-3-yl)oxy)methyl)bicyclo[1.1.1]pentane-1-carboxylic acid], the concentration for half-maximal inhibition (IC50) was determined as 0.417 µM.

As for `Cc1nc(-c2nnn(C)c2COC(=O)N(C)CC2CCC2)ccc1OCC12CC(C(=O)O)(C1)C2` [Example 52, 3-(((6-(5-((((cyclobutylmethyl)(methyl)carbamoyl)oxy)methyl)-1-methyl-1H-1,2,3-triazol-4-yl)-2-methylpyridin-3-yl)oxy)methyl)bicyclo[1.1.1]pentane-1-carboxylic acid], the IC50 is 0.372 µM.

Turning to `Cc1noc(-c2ccc(OCC34CC(C(=O)O)(C3)C4)cc2)c1COC(=O)N(C)C1CCCC1` [Example 53, 3-((4-(4-(((cyclopentyl(methyl)carbamoyl)oxy)methyl)-3-methylisoxazol-5-yl)phenoxy)methyl)bicyclo[1.1.1]pentane-1-carboxylic acid], the IC50 came to 0.604 µM.
